According to the NIST ThermoML archive (doi:10.1021/je020189p):
“And” between values parts separate entries of the source, which are not always exact repeats. Identical values can stand only once.

[Br][Gd]([Br])[Br] [gadolinium bromide (GdBr3)]
Settings | vapor or sublimation pressure
895 K, Crystal | 3.31e-05 kPa
910 K, Crystal | 4.17e-05 kPa
914 K, Crystal | 6.31e-05 kPa
917 K, Crystal | 7.76e-05 kPa
919 K, Crystal | 8.91e-05 kPa
920 K, Crystal | 7.76e-05 kPa
926 K, Crystal | 0.000112 kPa
928 K, Crystal | 7.76e-05 kPa
929 K, Crystal | 0.000105 kPa
932 K, Crystal | 0.000138 kPa
934 K, Crystal | 0.000135 kPa
937 K, Crystal | 0.000166 kPa
941 K, Crystal | 0.00017 kPa
945 K, Crystal | 0.000155 kPa and 0.000204 kPa
947 K, Crystal | 0.000234 kPa
951 K, Crystal | 0.000251 kPa and 0.000141 kPa
953 K, Crystal | 0.000324 kPa
956 K, Crystal | 0.000282 kPa and 0.000302 kPa
957 K, Crystal | 0.000331 kPa and 0.000224 kPa
959 K, Crystal | 0.000324 kPa
962 K, Crystal | 0.000447 kPa
964 K, Crystal | 0.000398 kPa
965 K, Crystal | 0.000389 kPa
967 K, Crystal | 0.000468 kPa
968 K, Crystal | 0.000324 kPa and 0.000282 kPa
969 K, Crystal | 0.000468 kPa and 0.000575 kPa
971 K, Crystal | 0.00049 kPa
973 K, Crystal | 0.00055 kPa
974 K, Crystal | 0.00055 kPa
977 K, Crystal | 0.000759 kPa
979 K, Crystal | 0.000468 kPa and 0.000676 kPa and 0.000427 kPa
980 K, Crystal | 0.000759 kPa
981 K, Crystal | 0.000708 kPa
983 K, Crystal | 0.000794 kPa
984 K, Crystal | 0.000562 kPa
986 K, Crystal | 0.000891 kPa
987 K, Crystal | 0.001 kPa
988 K, Crystal | 0.000933 kPa
989 K, Crystal | 0.000708 kPa
990 K, Crystal | 0.00107 kPa and 0.000617 kPa and 0.00115 kPa
993 K, Crystal | 0.0011 kPa
994 K, Crystal | 0.0011 kPa
996 K, Crystal | 0.00123 kPa
997 K, Crystal | 0.00145 kPa
999 K, Crystal | 0.00102 kPa and 0.00155 kPa
1000 K, Crystal | 0.00138 kPa
1001 K, Crystal | 0.00155 kPa
1002 K, Crystal | 0.000912 kPa
1003 K, Crystal | 0.00148 kPa
1004 K, Crystal | 0.00158 kPa
1006 K, Crystal | 0.00162 kPa
1008 K, Crystal | 0.00141 kPa and 0.002 kPa
1011 K, Crystal | 0.00219 kPa and 0.002 kPa
1012 K, Crystal | 0.00195 kPa
1014 K, Crystal | 0.00245 kPa and 0.00219 kPa and 0.00135 kPa
1015 K, Crystal | 0.0017 kPa and 0.00219 kPa
1018 K, Crystal | 0.00191 kPa and 0.00275 kPa
1019 K, Crystal | 0.00251 kPa
1020 K, Crystal | 0.00288 kPa
1023 K, Crystal | 0.00219 kPa and 0.00275 kPa
1025 K, Crystal | 0.00302 kPa
1026 K, Crystal | 0.002 kPa and 0.00347 kPa
1029 K, Crystal | 0.00372 kPa and 0.00275 kPa
1030 K, Crystal | 0.00363 kPa
1032 K, Crystal | 0.00295 kPa and 0.00372 kPa
1034 K, Crystal | 0.00398 kPa
1035 K, Crystal | 0.00339 kPa
1036 K, Crystal | 0.00468 kPa
1041 K, Crystal | 0.00513 kPa and 0.00316 kPa
1043 K, Crystal | 0.00513 kPa
1045 K, Crystal | 0.00575 kPa
1049 K, Crystal | 0.00661 kPa and 0.00417 kPa
1051 K, Crystal | 0.00661 kPa
1057 K, Crystal | 0.00776 kPa and 0.00832 kPa and 0.00525 kPa
1060 K, Liquid | 0.00646 kPa
1067 K, Liquid | 0.00933 kPa
1073 K, Liquid | 0.00851 kPa
1074 K, Liquid | 0.00741 kPa
1078 K, Liquid | 0.012 kPa
1085 K, Liquid | 0.0117 kPa
1087 K, Liquid | 0.0145 kPa
1091 K, Liquid | 0.0115 kPa
1096 K, Liquid | 0.0158 kPa
1098 K, Liquid | 0.0191 kPa
1099 K, Liquid | 0.0138 kPa
1105 K, Liquid | 0.0204 kPa
1108 K, Liquid | 0.0178 kPa and 0.0234 kPa
1114 K, Liquid | 0.024 kPa
1119 K, Liquid | 0.0229 kPa and 0.0302 kPa
1123 K, Liquid | 0.0282 kPa
1128 K, Liquid | 0.0372 kPa
1130 K, Liquid | 0.0302 kPa
1138 K, Liquid | 0.0468 kPa
1140 K, Liquid | 0.0427 kPa and 0.038 kPa
1148 K, Liquid | 0.0513 kPa
1150 K, Liquid | 0.049 kPa and 0.0617 kPa
1155 K, Liquid | 0.0617 kPa
1159 K, Liquid | 0.0589 kPa
1161 K, Liquid | 0.0794 kPa
1168 K, Liquid | 0.0708 kPa
1169 K, Liquid | 0.0912 kPa
1179 K, Liquid | 0.0912 kPa
